The assay deals with Keap1/Nrf2 (Homo sapiens, UniProt Q14145). As to the kind of experiment: Inhibition of Keap1 Kelch domain (unknown origin)/FITC-labelled-9mer Nrf2 (unknown origin) protein-protein interaction incubated for 30 mins by fluorescence polarisation assay.

SMILES strings stand for the structures.

Sequence of Keap1/Nrf2 (Q16236 whole entry, the tested form may be a part): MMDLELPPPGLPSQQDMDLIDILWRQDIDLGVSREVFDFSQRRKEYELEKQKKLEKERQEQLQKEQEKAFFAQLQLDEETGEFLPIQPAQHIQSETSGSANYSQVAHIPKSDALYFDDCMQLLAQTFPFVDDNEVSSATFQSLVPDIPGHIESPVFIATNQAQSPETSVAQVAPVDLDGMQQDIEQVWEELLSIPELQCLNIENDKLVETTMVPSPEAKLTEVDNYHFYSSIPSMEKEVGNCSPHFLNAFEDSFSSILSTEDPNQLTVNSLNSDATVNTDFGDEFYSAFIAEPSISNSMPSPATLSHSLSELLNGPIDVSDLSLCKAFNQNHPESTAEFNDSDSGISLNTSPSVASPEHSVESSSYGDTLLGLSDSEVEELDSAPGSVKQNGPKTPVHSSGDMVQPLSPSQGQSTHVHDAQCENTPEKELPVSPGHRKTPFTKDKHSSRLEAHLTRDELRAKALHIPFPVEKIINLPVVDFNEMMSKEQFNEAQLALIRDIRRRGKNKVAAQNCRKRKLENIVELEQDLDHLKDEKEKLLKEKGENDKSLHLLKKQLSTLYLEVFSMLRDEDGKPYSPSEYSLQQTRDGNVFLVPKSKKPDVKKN
Sequence of Keap1/Nrf2 (Q14145 whole entry, the tested form may be a part): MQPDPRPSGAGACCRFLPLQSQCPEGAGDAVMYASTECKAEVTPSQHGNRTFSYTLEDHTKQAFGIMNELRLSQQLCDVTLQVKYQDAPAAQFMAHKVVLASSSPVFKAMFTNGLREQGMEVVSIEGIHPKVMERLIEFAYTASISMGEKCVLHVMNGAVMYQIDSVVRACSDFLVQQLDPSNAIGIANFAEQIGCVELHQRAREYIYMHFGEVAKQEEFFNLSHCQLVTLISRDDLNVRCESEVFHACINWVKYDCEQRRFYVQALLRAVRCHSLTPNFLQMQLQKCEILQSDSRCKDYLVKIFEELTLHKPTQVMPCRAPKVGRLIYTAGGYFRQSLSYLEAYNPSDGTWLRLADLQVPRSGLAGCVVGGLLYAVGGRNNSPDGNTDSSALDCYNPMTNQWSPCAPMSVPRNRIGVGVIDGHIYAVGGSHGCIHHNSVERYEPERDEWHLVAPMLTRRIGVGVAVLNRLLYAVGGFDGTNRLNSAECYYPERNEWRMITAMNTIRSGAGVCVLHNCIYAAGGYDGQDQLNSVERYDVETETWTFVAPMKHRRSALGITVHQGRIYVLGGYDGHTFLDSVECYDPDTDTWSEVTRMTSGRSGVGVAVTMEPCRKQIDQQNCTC

As to `COc1ccc(S(=O)(=O)Nc2ccc(NS(=O)(=O)c3cccnc3)cc2)cc1`, the IC50 came to 31.5 µM.

For the origin of these results see ChEMBL document CHEMBL5360597, “Medicinal Chemistry Insights into the Development of Small-Molecule Kelch-Like ECH-Associated Protein 1-Nuclear Factor Erythroid 2-Related Factor 2 (Keap1-Nrf2) Protein-Protein Interaction Inhibitors” (J Med Chem, 2023).
